Patent US9981005B2, “Methods for increasing DISC1 in a subject with schizophrenia or bipolar disorder by an antagonist inhibiting DISC1 binding to FBXW7” (The University Court of the University of Glasgow, priority 2013, dated 2018)
“Also recorded” adds a separate entry of the source. Where a SMILES comes first, the peptide text is derived from it. Where no end group is shown, it is not given here. [ ]: non-standard residue; d: D form. The star is where a group is joined. pT = C[C@@H](OP(=O)(O)O)[C@H](N)C(=O)O; NMeE = CN[C@@H](CCC(=O)O)C(=O)O; pS = N[C@@H](COP(=O)(O)O)C(=O)O; NMeD = CN[C@@H](CC(=O)O)C(=O)O; Cbz = O=C(OCc1ccccc1)*

Experiments:
FBXW7 = FBXW7 (Homo sapiens, UniProt Q969H0); assay: Peptides immobilised on membranes screened for the ability to bind FBXW7; format: binding
Sequence of FBXW7 (Q969H0 whole entry): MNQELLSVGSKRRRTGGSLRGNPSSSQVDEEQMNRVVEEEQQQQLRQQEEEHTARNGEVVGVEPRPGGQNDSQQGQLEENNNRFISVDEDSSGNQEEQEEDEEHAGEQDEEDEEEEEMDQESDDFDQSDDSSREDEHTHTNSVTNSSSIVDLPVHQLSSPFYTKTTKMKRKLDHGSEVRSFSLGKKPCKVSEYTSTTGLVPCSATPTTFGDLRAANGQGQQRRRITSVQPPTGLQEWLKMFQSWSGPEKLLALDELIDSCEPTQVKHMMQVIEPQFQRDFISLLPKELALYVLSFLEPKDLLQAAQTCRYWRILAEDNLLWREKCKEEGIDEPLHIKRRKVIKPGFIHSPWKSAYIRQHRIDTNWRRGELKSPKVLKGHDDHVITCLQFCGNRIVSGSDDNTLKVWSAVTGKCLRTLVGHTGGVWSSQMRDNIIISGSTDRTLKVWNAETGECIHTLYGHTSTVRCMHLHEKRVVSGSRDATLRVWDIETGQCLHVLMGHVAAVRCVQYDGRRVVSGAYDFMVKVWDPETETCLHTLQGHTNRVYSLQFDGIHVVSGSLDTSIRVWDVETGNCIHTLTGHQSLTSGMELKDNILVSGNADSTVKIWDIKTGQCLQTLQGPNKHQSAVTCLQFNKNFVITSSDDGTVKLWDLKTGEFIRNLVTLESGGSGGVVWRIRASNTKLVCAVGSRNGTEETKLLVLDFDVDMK
Text: Peptides derived from DISC1 and containing the putative phospho-degron motif were immobilised on membranes and screened for the ability to bind FBXW7. […] (SEQ ID NO: 114).
The 7-mer peptide P-pT-P-P-G-pS-H (SEQ ID NO: 21) was used as the basis for further investigation. L- and D-forms of aspartic acid and glutamic acid (upper and lower case letters respectively) as well as N-methylated versions of each (designated “m”) were incorporated at positions 198 and 202.

[1] = system: DISC1 expression in HEK293 cells; assay: DISC1 expression in HEK293 cells treated with cell-permeable peptides, quantitative Western blotting; format: cell-based, human; settings: for DISC1 up-regulation, time course: cell-permeable (N-terminal stearate) peptides at 100 μM, 0, 1, 2, 3 and 6 hours, FIG. 9
Description: Peptides modified at the N-terminal amino group with stearate moieties to render them cell permeable (Severn Biotech Ltd) were dissolved in sterile DMSO at a stock concentration of 100 mM.
HEK293 cells were seeded into 6 well plates and cultured until 70-80% confluent. Cell permeable peptides 139 and 142 were added at 100 μM. Cells were incubated at 37° C./5% C02. Cells were taken at 0, 1, 2, 3 and 6 hours post peptide addition. After treatment cells were washed briefly with ice cold PBS and lysed on ice using 3T3 lysis buffer (20 mM Hepes (pH 7.4), 50 mM NaCl, 50 mM NaF, 10% (v/v) glycerol, 1% (w/v) Triton X-100, 10 mM EGTA, 30 mM sodium pyrophosphate) containing protease and phosphatase inhibitors. Protein concentrations were assessed using Bradford assay. Cell lysates were separated by SDS-PAGE and levels of DISC1 expression determined by quantitative Western blotting using the Licor Odyssey imaging system. GAPDH was used as a control to confirm equal loading.
In a similar experiment, HEK293 were seeded into 6 well plates and cultured until 70-80% confluent. Cell-permeable peptides 139 and 142 were added over a concentration range: 10 μM, 30 μM, 50 μM, 100 μM in duplicate. Cells were incubated at 37° C./5% C02 for 3 hours. […] After treatment cells were washed briefly with ice cold PBS and lysed on ice as described above.
(§1) Lysates were boiled in Laemmli buffer for 2 minutes prior to SDS-PAGE. Lysates were loaded on to a precast 4-12% bis-tris gel (˜10 μg/well). Gels were resolved at 150V (constant) for 90 mins. Proteins were transferred to nitrocellulose membrane at 30V for 1 hour. Membranes were blocked in 5% Milk in 1×TBS-tween20 for 1 hour at room temperature. Primary antibodies were diluted in 1% milk in 1×TBS-tween20 and incubated overnight at 4° C. […] Protein bands were visulised using the Licor Odyssey scanner and analysed using Odyssey software (version 1.2). DISC-1 protein levels were analysed by densitometry and normalised against those of the loading control (GAPDH).

[2] = system: FBXW7 substrates Notch-1, c-Myc, c-Jun and cyclinE; assay: Expression levels of other FBXW7 substrates after peptide treatment, Western blot; format: cell-based, human; settings: FIG. 11, specificity for the FBXW7-DISC1 interaction
Description: Lysates were boiled in Laemmli buffer for 2 minutes prior to SDS-PAGE. Lysates were loaded on to a precast 4-12% bis-tris gel (˜10 μg/well). Gels were resolved at 150V (constant) for 90 mins. Proteins were transferred to nitrocellulose membrane at 30V for 1 hour. Membranes were blocked in 5% Milk in 1×TBS-tween20 for 1 hour at room temperature. Primary antibodies were diluted in 1% milk in 1×TBS-tween20 and incubated overnight at 4° C. Membranes were washed three times with 1×TBS-tween20 and the appropriate secondary antibody (diluted using 1% milk in 1×TBS-tween20) was added for 45 mins at room temperature. Membranes were washed a further three times with 1×TBS-tween20 and once in 1×TBS. Protein bands were visulised using the Licor Odyssey scanner and analysed using Odyssey software (version 1.2). DISC-1 protein levels were analysed by densitometry and normalised against those of the loading control (GAPDH).

Skp1-FBXW7 = molecular target: T1, Skp1-FBXW7 (Homo sapiens, UniProt Q969H0); assay: Isothermal titration calorimetry (ITC); format: binding; settings: ITC at 25° C.
T1 construct: human FBXW7 (residues 263-707); His6 (N, cleaved yes); made in house; host or cells: Escherichia coli
T1 sequence (Q969H0 263-707): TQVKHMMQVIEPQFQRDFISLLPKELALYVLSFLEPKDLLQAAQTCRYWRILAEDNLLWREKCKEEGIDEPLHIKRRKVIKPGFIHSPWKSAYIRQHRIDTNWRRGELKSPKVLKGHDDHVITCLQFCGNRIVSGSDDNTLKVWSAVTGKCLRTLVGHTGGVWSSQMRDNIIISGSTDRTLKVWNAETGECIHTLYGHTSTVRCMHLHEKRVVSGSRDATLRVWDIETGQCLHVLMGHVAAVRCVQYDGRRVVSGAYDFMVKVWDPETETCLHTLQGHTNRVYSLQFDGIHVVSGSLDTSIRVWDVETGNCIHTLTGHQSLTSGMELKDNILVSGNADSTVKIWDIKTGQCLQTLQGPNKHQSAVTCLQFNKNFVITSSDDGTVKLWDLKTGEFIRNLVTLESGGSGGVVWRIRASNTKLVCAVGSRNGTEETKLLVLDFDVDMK
Description: Affinity of DISC1 analogue peptides (or other binding inhibitors) for FBXW7 may be determined using ITC.
Protein samples are typically dialysed against a solution containing 20 mM HEPES-Na (pH 7.4), 200 mM NaCl, and 2 mM β-mercaptoethanol before combining. Typically, the concentrations of Skp1-FBXW7 and DISC1 peptides used in the assay are 50 μM and 1 mM, respectively.
Titration is performed at 25° C. with a NANO ITC System (TA Instruments, New Castle, Del.) and data analysed using the TA Nano Analyze software. Dissociation constants and their standard deviations are typically derived from two to three independent measurements.

[3] = system: DISC1 levels in HEK293 cells; assay: MG132 treatment of HEK293 cells, Western blot for DISC1; format: cell-based, human; settings: MG132 at various concentrations for 3 hours, FIG. 1
Description: The proteasome inhibitor MG132 (N-carbobenzoxyl-Leu-Leu-Leucinal) (Sigma) was dissolved in DMSO to make a stock of 10 mM and stored at −20° C. HEK293 cells were treated with MG132 at various concentrations for 3 hours. The cells were then lysed in 3T3 lysis buffer (20 mM Hepes (pH 7.4), 50 mM NaCl, 50 mM NaF, 10% (v/v) glycerol, 1% (w/v) Triton X-100, 10 mM EGTA, 30 mM sodium pyrophosphate supplemented with protease and phosphatase inhibitor cocktail (Roche)). Proteins were quantified and normalised for protein concentration followed by Western blot analysis for DISC1 and GAPDH.
as §1

G-mE-P-P-G-mE-H (G[NMeE]PPG[NMeE]H) [Peptide 139]
binding to FBXW7 (FBXW7): retain or have improved binding to FBXW7
DISC1 up-regulation, time course [1]: Up-Regulate DISC1 Expression
DISC1 up-regulation, dose dependence ([1]; cell-permeable peptides at 10 μM, 30 μM, 50 μM, 100 μM, 3 hours, FIG. 10): dose-dependent
effect on expression levels of the other FBXW7 substrates Notch-1, c-Myc, c-Jun and cyclinE [2]: do not upregulate other FBXW7 substrates; also recorded: no effect

CC(C)[C@H](N)C(=O)N1CCC[C@H]1C(=O)N1CCC[C@H]1C(=O)N[C@H](C(=O)N1CCC[C@H]1C(=O)N1CCC[C@H]1C(=O)NCC(=O)N[C@@H](COP(=O)(O)O)C(=O)N[C@@H](Cc1c[nH]cn1)C(=O)O)[C@@H](C)OP(=O)(O)O [VPPpTPPGpSH] (H-VPP[pT]PPG[pS]H-OH; N-terminus and C-terminus assumed)
Kd (Skp1-FBXW7): ~1 µM

CC(C)C[C@@H](C=O)NC(=O)[C@H](CC(C)C)NC(=O)[C@H](CC(C)C)NC(=O)OCc1ccccc1 [MG132, N-carbobenzoxyl-Leu-Leu-Leucinal] (Cbz-Leu-Leu-Leu-aldehyde)
DISC1 levels [3]: up-regulates DISC1 levels

G-mD-P-P-G-mE-H (G[NMeD]PPG[NMeE]H) [Peptide 142]
binding to FBXW7 (FBXW7): retain or have improved binding to FBXW7
DISC1 up-regulation, time course [1]: Up-Regulate DISC1 Expression
effect on expression levels of the other FBXW7 substrates Notch-1, c-Myc, c-Jun and cyclinE [2]: do not upregulate other FBXW7 substrates; also recorded: no effect
